Data reported in patent publication US11040981B2, “Pyrrolotriazine compounds and methods of inhibiting TAM kinases” (Syros Pharmaceuticals, Inc., priority 2017, dated 2021).

What was measured:
AXL = target: T1, AXL (Homo sapiens, UniProt P30530); assay: TR-FRET kinase activity assay, AXL; type: biochemical; details: ATP at Km, 60 minutes
T1 sequence (P30530 26-894): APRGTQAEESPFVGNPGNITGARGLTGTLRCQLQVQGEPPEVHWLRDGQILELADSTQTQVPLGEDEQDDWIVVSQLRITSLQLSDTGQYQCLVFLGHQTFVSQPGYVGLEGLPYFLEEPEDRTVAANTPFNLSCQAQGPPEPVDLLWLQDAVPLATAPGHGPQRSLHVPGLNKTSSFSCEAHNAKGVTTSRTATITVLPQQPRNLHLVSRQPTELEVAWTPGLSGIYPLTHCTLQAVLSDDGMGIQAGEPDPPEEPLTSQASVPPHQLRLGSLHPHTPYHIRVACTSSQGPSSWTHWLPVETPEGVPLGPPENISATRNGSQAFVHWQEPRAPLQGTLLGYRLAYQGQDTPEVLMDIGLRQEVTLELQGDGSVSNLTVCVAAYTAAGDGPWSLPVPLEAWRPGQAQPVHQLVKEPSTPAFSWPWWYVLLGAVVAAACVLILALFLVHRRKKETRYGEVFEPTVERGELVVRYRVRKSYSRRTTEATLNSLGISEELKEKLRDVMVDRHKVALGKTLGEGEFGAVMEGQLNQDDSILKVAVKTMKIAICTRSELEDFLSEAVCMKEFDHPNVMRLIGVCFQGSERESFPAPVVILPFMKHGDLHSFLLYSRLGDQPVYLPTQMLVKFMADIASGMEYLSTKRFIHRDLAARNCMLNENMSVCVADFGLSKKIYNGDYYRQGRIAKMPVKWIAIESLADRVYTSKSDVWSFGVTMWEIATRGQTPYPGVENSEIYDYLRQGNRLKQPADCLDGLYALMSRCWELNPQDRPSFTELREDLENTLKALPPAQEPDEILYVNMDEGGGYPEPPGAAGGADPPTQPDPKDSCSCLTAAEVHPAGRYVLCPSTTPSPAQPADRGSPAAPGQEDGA
How it was run: (§1)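 IC50 reflects the drop in TR-FRET between Eu anti-phosphotyrosine antibody and labelled peptide after a 60-minute room-temperature reaction. Buffer was 50 mM HEPES pH 7.5 with 10 mM MgCl2, 1 mM EGTA, 0.01% Brij 35 and 1 mM DTT, with ATP at Km per enzyme and EDTA quench.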

MERTK = target: T2, MERTK (Homo sapiens, UniProt Q12866); assay: TR-FRET kinase activity assay, MERTK; type: biochemical; details: for IC50: TR-FRET activity assay, ATP at Km, 60 minutes, read-out: Mer IC50
T2 sequence (Q12866 21-999): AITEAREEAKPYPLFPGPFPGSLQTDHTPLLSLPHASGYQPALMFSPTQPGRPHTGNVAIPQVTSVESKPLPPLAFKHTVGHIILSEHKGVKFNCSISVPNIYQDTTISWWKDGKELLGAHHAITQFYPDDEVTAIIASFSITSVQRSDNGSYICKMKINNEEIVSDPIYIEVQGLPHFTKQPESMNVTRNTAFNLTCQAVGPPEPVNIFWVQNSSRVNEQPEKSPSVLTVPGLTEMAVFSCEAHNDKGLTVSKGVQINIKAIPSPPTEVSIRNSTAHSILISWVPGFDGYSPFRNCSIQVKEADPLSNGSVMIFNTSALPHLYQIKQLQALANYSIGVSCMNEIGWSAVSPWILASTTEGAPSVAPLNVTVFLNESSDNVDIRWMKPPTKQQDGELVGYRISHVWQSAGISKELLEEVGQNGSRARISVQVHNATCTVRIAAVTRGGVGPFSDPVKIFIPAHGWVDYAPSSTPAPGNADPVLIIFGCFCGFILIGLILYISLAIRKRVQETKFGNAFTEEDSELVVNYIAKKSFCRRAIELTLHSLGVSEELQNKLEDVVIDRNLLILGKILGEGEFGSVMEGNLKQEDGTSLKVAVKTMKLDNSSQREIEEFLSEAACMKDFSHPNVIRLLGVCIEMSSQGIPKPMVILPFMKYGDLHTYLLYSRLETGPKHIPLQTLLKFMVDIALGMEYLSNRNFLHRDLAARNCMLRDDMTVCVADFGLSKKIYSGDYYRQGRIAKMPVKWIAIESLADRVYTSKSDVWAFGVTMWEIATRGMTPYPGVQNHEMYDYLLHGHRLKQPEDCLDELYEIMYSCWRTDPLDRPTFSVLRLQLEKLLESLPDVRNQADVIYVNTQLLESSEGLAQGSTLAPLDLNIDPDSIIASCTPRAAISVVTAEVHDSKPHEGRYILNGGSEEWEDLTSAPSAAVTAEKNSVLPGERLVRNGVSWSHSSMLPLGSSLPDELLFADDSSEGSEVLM
How it was run: as §1

[1] = ratio calculated as FLT3 IC50/Mer IC50

SMILES	IC50 (AXL) [nM]	IC50 (MERTK) [nM]	FLT3/Mer ratio (FLT3 IC50/Mer IC50) (MERTK; [1])	FLT3/Mer ratio (FLT3 IC50/Mer IC50) (MERTK; ratio of Mer to FLT3: FLT3 IC50/Mer IC50)
COC[C@H](C)Nc1ncc2c(-c3cnn(C(C)(C)C(=O)N4CCOCC4)c3)cc([C@@H]3CCc4cn[nH]c4C3)n2n1 [Compound 594]	≤ 100	≤ 100	+++ (“+++” represents a ratio of >100)	–
COC[C@H](C)Nc1ncc2c(-c3ccnc(N4CCc5cnn(C)c5C4)c3)cc([C@H]3CC[C@H](O)CC3)n2n1 [Compound 518]	≤ 100	≤ 100	+++ (“+++” represents a ratio of >100)	–
C[C@@H](CC(F)(F)F)Nc1ncc2c(-c3cncc([S@@](C)(=N)=O)c3)cc([C@H]3CC[C@H](O)CC3)n2n1 [Compound 583]	≤ 100	≤ 100	+++ (“+++” represents a ratio of >100)	–
COC[C@H](C)Nc1ncc2c(-c3ccnc([S@](C)(=N)=O)c3)cc([C@H]3CC[C@H](O)CC3)n2n1 [Compound 575]	100 to 1000	≤ 100	+++ (“+++” represents a ratio of >100)	–
COCC(C)Nc1ncc2c(-c3ccc4cc[nH]c4c3)cc(C3CCC(O)CC3)n2n1 (stereo not drawn) [Compound 538]	100 to 1000	≤ 100	+++ (“+++” represents a ratio of >100)	–
COC[C@H](C)Nc1ncc2c([C@H]3CC[C@H](C(=O)N4CC5(COC5)C4)CC3)cc([C@H]3CC[C@H](O)CC3)n2n1 [Compound 578]	100 to 1000	≤ 100	+++ (“+++” represents a ratio of >100)	–
COC[C@H](C)Nc1ncc2c([C@H]3CC[C@H](C(C)=O)CC3)cc([C@H]3CC[C@H](O)CC3)n2n1 [Compound 576]	100 to 1000	≤ 100	+++ (“+++” represents a ratio of >100)	–
COC[C@H](C)Nc1ncc2c(-c3cnn(C(C)(C)C(=O)N4CCO[C@@H](C(C)(C)O)C4)c3)cc([C@H]3CC[C@H](O)CC3)n2n1 [Compound 585]	≤ 100	≤ 100	+++ (“+++” represents a ratio of >100)	–
COCC(C)Nc1ncc2c(-c3ccc(C(C)N4CCOCC4)cc3)cc(C3CCC(O)CC3)n2n1 (stereo not drawn) [Compound 143]	≤ 100	≤ 100	–	++ (“++” represents a ratio of between 10 and 100)
C[C@@H](CC(F)(F)F)Nc1ncc2c(-c3ccc([S@](C)(=N)=O)nc3)cc([C@H]3CC[C@H](O)CC3)n2n1 [Compound 540]	≤ 100	≤ 100	+++ (“+++” represents a ratio of >100)	–
COC[C@H](C)Nc1ncc2c(-c3cnn(C(C)(C)C(=O)N4CCOC(C(C)(C)O)C4)c3)cc([C@H]3CC[C@H](O)CC3)n2n1 (stereo partly drawn) [Compound 586]	≤ 100	≤ 100	+++ (“+++” represents a ratio of >100)	–
COC[C@H](C)Nc1ncc2c(-c3cnn(C(C)(C)C(=O)N4CCOCC4)c3)cc([C@H]3CC[C@@H](O)CC3)n2n1 [Compound 547]	≤ 100	≤ 100	+++ (“+++” represents a ratio of >100)	–
COC[C@H](C)Nc1ncc2c(-c3cnn(C(C)(C)C(=O)N4CCOCC4)c3)cc([C@H]3CC[C@](C)(O)CC3)n2n1 [Compound 560]	≤ 100	≤ 100	+++ (“+++” represents a ratio of >100)	–
